The subject of the experiment is ArBNR1. Description: Luminescence (GFP-aequorin Ca2+) assay, CHO-K1 cells coexpressing ArBNR1 and Gqs5. Particulars: ArBNR1, words. It is filed as cell-based, Asterias rubens. On the procedure: Having investigated relationships of eleven A. rubens BN-type receptor candidates (ArBNR1-11) with BN-type, ET-type, and CCHa/EP-type receptors in other taxa, ArBNR1 was identified as the best candidate and therefore this was selected for experimental testing. However, two other receptors (ArBNR2 and ArBNR3) were also tested. The methods employed for functional characterization of A. rubens neuropeptide receptors have been described previously ([57]) and a description of the methods employed in this study is included in SI Appendix, SI Methods. […]
As a complement to use of CLANS, phylogenetic trees were generated with the maximum-likelihood method (1000 bootstrap replicates) using One Step Build a ML Tree plugin in TBtools (12), specifying orexin-type receptors as an outgroup. […] Tree_B analysed the branch of tree_A containing ArBNR1; tree_C analysed the branch of tree_A containing ArBNR2; tree_D analysed the branch of tree_A containing ArBNR3; tree_E analysed the branch of tree_A containing ArBNR4, ArBNR5 and ArBNR6; tree_F analysed the branch of tree_A containing ArBNR7; tree_G analysed the branch of tree_A containing ArBNR8; tree_H analysed the branch of tree_A containing ArBNR9 and tree_I analysed the branch of tree_A containing ArBNR10 and ArBNR11. […]
identical to residues 18 - 270 of the protein XP_033631283.1, which was determined from genome […]

Entries after “also recorded” stand apart in the source; their conditions may differ.

Consider “EPMPSSLALYIANLSP-NH2 [ArBNP65-81, C-terminally amidated 16-residue peptide predicted to be derived from residues 65 to 81 of ArBNP]”, for which the peptide-induced luminescence result was “did not trigger luminescence; also recorded: peptide-induced luminescence was only observed with ArBN5-14”.
